The record followed here is BindingDB's records for aid1799748 (Csar, 2012).

The structures appear in SMILES notation. Bounds are passed on as bounds.

The assay deals with Urokinase-type plasminogen activator (Homo sapiens, UniProt P00749). The assay is described as follows: Abbott uPA__Urokinase Human - Ki(uM). Particulars: pH 7.4; 25 °C.
A word on the Ki: it is a measure of affinity in units of concentration, obtained from inhibition or displacement. Take `CS(=O)(=O)n1cc(-c2cc(C(=O)Nc3ccccc3)cc3ccc(C(=N)N)cc23)cn1` [uPa_20]: the affinity corresponds to a Ki of 769 nM.

As to `N=C(N)c1ccc2cc(/C=C/CCc3cccnc3)cc(Br)c2c1` [uPa_32], the affinity corresponds to a Ki of 3080 nM.

In the case of `N=C(N)NC(=O)c1nc(Cl)c(NCc2cc(Cl)cc(Cl)c2)nc1N` [uPa_22], the affinity, expressed as Ki, was 3570 nM.

As to `CC(C)Oc1ccc2cc(C(=N)N)ccc2c1` [uPa_5], affinity was put at a Ki of 7280 nM.

For the compound `CC(C)C1c2cc(C3CC3c3cc(/C=C/C4CC4)c4cc(C(=N)N)ccc4c3)ccc2CCN1C` (stereo not drawn) [uPa_43], the affinity, expressed as Ki, was 9 nM.

`COc1cc(NC(=O)c2ccc3cc(C(=N)N)ccc3c2)cc(OC(C)C)c1` [uPa_28] had a Ki of 33 nM.

Compound `COc1ccc2ccc(C(=N)N)cc2c1-c1cnn(C(C)C)c1` [uPa_11] had a Ki of 4500 nM.

`CN1CCc2ccc(C3CC3c3ccc4cc(C(=N)N)ccc4c3)cc2C1c1cccnc1` (stereo not drawn) [uPa_44] came in with a Ki of 1250 nM.

`N=C(N)c1ccc2cc(C(=O)Nc3ccccc3)cc(-c3ncccn3)c2c1` [uPa_21] returned a Ki of 7850 nM.

On to `COC(=O)Nc1cc(C(=O)Nc2ccccc2)cc2ccc(C(=N)N)cc12` [uPa_36], for which the Ki stood at 18 nM.

On to `N=C(N)NC(=O)c1ccc(Cl)c(S(N)(=O)=O)c1` [uPa_45], for which the Ki was > 100000 nM.

Take `C=CCNC(=O)Nc1cccc2ccc(N)nc12` [uPa_30]: the Ki is > 10000 nM.

As for `Nc1cc2ccccc2cn1`, the Ki is > 30000 nM.

Regarding `N=C(N)c1ccc2cc(C(=O)Nc3ccc4c(c3)C(C3CCCCC3)=NCC4)ccc2c1` [uPa_31], the affinity, expressed as Ki, was 66 nM.

With `COC(=O)Nc1cc(C(=O)Nc2ccc(CN)cc2)cc2ccc(C(=N)N)cc12` [uPa_17], the affinity corresponds to a Ki of 0.9 nM.

As for `C#CCN(C)C(=O)c1ccc2ccc(N)nc2c1` [uPa_33], the Ki is > 100000 nM.

As for `N=C(N)c1ccc2cc(C(=O)Nc3ccc4c(c3)C(c3ccccc3)=NCC4)ccc2c1` [uPa_29], the affinity corresponds to a Ki of 290 nM.

For `CN(CC#N)C(=O)c1ccc2ccc(N)nc2c1` [uPa_35], the inhibition constant Ki was > 100000 nM.

`N=C(N)c1ccc2cc(NS(=O)(=O)c3ccccc3)ccc2c1` [uPa_14] came in with a Ki of 8700 nM.

In turn, `CCOc1cc(OCC)c(OCC)cc1/C=C/c1cc(Br)c2cc(C(=N)N)ccc2c1` [uPa_38] showed an inhibition constant Ki of 777 nM.

`CC(C)C1=NCCc2ccc(NC(=O)c3cc(Br)c4cc(C(=N)N)ccc4c3)cc21` [uPa_26]: the Ki worked out at 16 nM.

For the compound `COC(=O)Nc1ccc2nc(N)ccc2c1` [uPa_24], the Ki was > 50000 nM.

Consider `Nc1cnc2ccccc2n1` [uPa_1], for which the Ki is > 50000 nM.

Take `Nc1ccc2nc(N)ccc2c1` [uPa_23]: the Ki was > 104000 nM.

Regarding `N#CC(CCOc1cccc2ccc(N)nc12)(c1ccccc1)c1ccccc1` [uPa_16], the Ki was > 40000 nM.

With `CC(C)CN(CC(C)C)C(=O)c1ccc2ccc(N)nc2c1` [uPa_34], the Ki was > 100000 nM.

Compound `CN1CCc2ccc(/C=C/c3ccc4cc(C(=N)N)ccc4c3)cc2C1C1CCCCC1` (stereo not drawn) [uPa_40] yielded a Ki of 223 nM.

For `N=C(N)c1ccc2cc(C#Cc3cccc(OC4CCCC4)c3)ccc2c1` [uPa_25], the Ki is 665 nM.

On to `CN1CCc2ccc(C3CC3c3ccc4cc(C(=N)N)ccc4c3)cc2C1C1CCC1` (stereo not drawn) [uPa_41], for which the affinity, expressed as Ki, was 42 nM.

`CS(=O)(=O)Nc1cc(CCc2ccccc2)cc2ccc(C(=N)N)cc12` [uPa_37] yielded a Ki of 1490 nM.

On to `COC(=O)Nc1ccc2nc(C(=N)N)ccc2c1` [uPa_27], for which the Ki was > 50000 nM.

Compound `COc1cc2ccc(C(=N)N)cc2c(OC)c1OC` [uPa_2] yielded a Ki of 8030 nM.

`COc1cc(C2CC2c2ccc3c(c2)C(C(C)C)N(C)CC3)cc2ccc(C(=N)N)cc12` (stereo not drawn) [uPa_42]: the Ki came out at 94 nM.
